“And” between values parts separate entries of the source, which are not always exact repeats. Equal entries are not always repeated.
What was measured:
Settings in all cases: incubation time: 72 h
BT-474 [1] = test: normalised viability (% of control), CellTiter-Blue; higher = more viable cells (about 100 = DMSO control)
Summary of the method: (§1)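 The reported figure is normalised viability at a single listed concentration of the series. Breast cancer cell lines (20 µl suspension) went onto 384-well plates holding compound in 5 µl medium for 72 h. CellTiter-Blue (2.5 µl, 2 h, 37 °C) was read by fluorescence at 560/590 nm, and each plate was scaled to vehicle at 100 and a positive kill control at 0.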

BT-549 [2] = test: as above
Summary of the method: as §1

DU-4475 [3] = test: as above
Summary of the method: as §1

HCC1143 [4] = test: as above
Summary of the method: as §1

HCC1599 [5] = test: as above
Summary of the method: as §1

HCC1937 [6] = test: as above
Summary of the method: as §1

MDA-MB-436 [7] = test: as above
Summary of the method: as §1

BT-474 [8] = test: drug sensitivity score (DSS), CellTiter-Blue viability (DSS (AUC-based score)); higher = stronger viability inhibition; extreme values may be limits of the assay
Method: (§2)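 DSRT with the CellTiter-Blue (resazurin reduction) viability readout, fluorescence 560/590 nm, 72 h incubation. Plates were normalised to DMSO and benzethonium chloride controls. DSS is computed from the area under the fitted dose-response curve (5 or 9 concentrations).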

BT-549 [9] = test: as above
Method: as §2

CAL-120 = test: as above
Method: as §2

CAL-148 = test: as above
Method: as §2

CAL-51 = test: as above
Method: as §2

CAL-85-1 = test: as above
Method: as §2

DU-4475 [10] = test: as above
Method: as §2

HCC1143 [11] = test: as above
Method: as §2

HCC1599 [12] = test: as above
Method: as §2

HCC1937 [13] = test: as above
Method: as §2

HDQ-P1 = test: as above
Method: as §2

Hs578T = test: as above
Method: as §2

MDA-MB-231 = test: as above
Method: as §2

MDA-MB-436 [14] = test: as above
Method: as §2

MDA-MB-453 = test: as above
Method: as §2

MDA-MB-468 = test: as above
Method: as §2

MFM-223 = test: as above
Method: as §2

SK-BR-3 = test: as above
Method: as §2

CC(=O)O[C@@]12CO[C@@H]1C[C@H](O)[C@@]1(C)C(=O)[C@H](O)C3=C(C)[C@@H](OC(=O)[C@H](O)[C@@H](NC(=O)OC(C)(C)C)c4ccccc4)C[C@@](O)([C@@H](OC(=O)c4ccccc4)[C@H]21)C3(C)C [Docetaxel]
normalised viability
Settings	BT-474 [1]	BT-549 [2]	DU-4475 [3]	HCC1143 [4]	HCC1599 [5]	HCC1937 [6]	MDA-MB-436 [7]
0.3 nM	–	–	116% and 110%	–	–	–	–
1 nM	91.6% and 101%	64.5% and 58.7%	–	79.8% and 66.2%	134% and 119%	53.9% and 76.2%	85% and 80.1%
3 nM	–	–	50.8% and 35.1%	–	–	–	–
10 nM	–	–	34.5% and 35.6%	–	–	–	–
100 nM	21.4% and 27.7%	24.3% and 19%	–	34.7% and 31.3%	101% and 94.3%	20.5% and 17.5%	19.3% and 34%
1000 nM	16.9% and 28.5%	24.4% and 20.3%	–	35.3% and 33%	104% and 99.7%	27.5% and 19%	38.6% and 43.8%

Settings	drug sensitivity score
BT-474 [8]	21.1 and 19.5
BT-549 [9]	27.3 and 29.3
CAL-51	22.4 and 25.2
CAL-85-1	22.5 and 22.9
CAL-120	24 and 24.9
CAL-148	26.1 and 28.4
DU-4475 [10]	26.1 and 28.1
HCC1143 [11]	19.6 and 25.2
HCC1599 [12]	0
HCC1937 [13]	27.2 and 24.9
HDQ-P1	17.8 and 22.5
Hs578T	31.2 and 30.6
MDA-MB-231	24.4 and 25.8
MDA-MB-436 [14]	18.7 and 19.2
MDA-MB-453	24.2 and 24.9
MDA-MB-468	19.4 and 20.5
MFM-223	16.2 and 17.8
SK-BR-3	28.9 and 29.4

C[C@]12CC[C@@H]3c4ccc(OC(=O)N(CCCl)CCCl)cc4CC[C@H]3[C@@H]1CC[C@@H]2O [Estramustine]
normalised viability [%]
Settings	BT-474 [1]	BT-549 [2]	DU-4475 [3]	HCC1143 [4]	HCC1599 [5]	HCC1937 [6]	MDA-MB-436 [7]
0.297 nM	–	–	93.6	–	–	–	–
0.99 nM	116	82.7	–	109	89	88.9	95
2.97 nM	–	–	99.3	–	–	–	–
9.9 nM	–	–	108	–	–	–	–
99 nM	115	89.6	–	106	76.9	75	96.1
990 nM	116	87.2	–	114	98.3	92.2	99.4

Settings	drug sensitivity score
BT-474 [8]	0
BT-549 [9]	0
CAL-51	0
CAL-85-1	0
CAL-120	0
CAL-148	0
DU-4475 [10]	0
HCC1143 [11]	0
HCC1599 [12]	0
HCC1937 [13]	0
HDQ-P1	0
Hs578T	0
MDA-MB-231	0
MDA-MB-436 [14]	0
MDA-MB-453	0
MDA-MB-468	0
MFM-223	0
SK-BR-3	0

CC1(C)CNc2cc(NC(=O)c3cccnc3NCc3ccncc3)ccc21 [Motesanib]
normalised viability [%]
Settings	BT-474 [1]	BT-549 [2]	DU-4475 [3]	HCC1143 [4]	HCC1599 [5]	HCC1937 [6]	MDA-MB-436 [7]
3 nM	–	–	85.6	–	–	–	–
10 nM	109	79.1	–	79.9	83.8	104	72.5
30 nM	–	–	79.6	–	–	–	–
100 nM	–	–	83.9	–	–	–	–
1000 nM	101	93.5	–	82.4	98.1	91.5	63
10000 nM	103	79.2	–	70.4	95.9	88.5	73

Settings	drug sensitivity score
BT-474 [8]	0
BT-549 [9]	0
CAL-51	0
CAL-85-1	0
CAL-120	0
CAL-148	0
DU-4475 [10]	0
HCC1143 [11]	0
HCC1599 [12]	0
HCC1937 [13]	0
HDQ-P1	0
Hs578T	0
MDA-MB-231	0
MDA-MB-436 [14]	0
MDA-MB-453	0
MDA-MB-468	0
MFM-223	0
SK-BR-3	0

C[C@]1(O)C[C@@H](c2nc(-c3ccc4ccc(-c5ccccc5)nc4c3)c3c(N)nccn32)C1 [OSI-906]
normalised viability [%]
Settings	BT-474 [1]	BT-549 [2]	DU-4475 [3]	HCC1143 [4]	HCC1599 [5]	HCC1937 [6]	MDA-MB-436 [7]
3 nM	–	–	92.7	–	–	–	–
10 nM	102	95.4	–	99.9	104	92.8	85.2
30 nM	–	–	104	–	–	–	–
100 nM	–	–	88.8	–	–	–	–
1000 nM	91.5	89.1	–	85.5	76.8	79.7	96
10000 nM	78.4	41.3	–	75.2	78.9	48.4	71.7

Settings	drug sensitivity score
BT-474 [8]	1.46
BT-549 [9]	3.58
CAL-51	1.03
CAL-85-1	1.93
CAL-120	0
CAL-148	0
DU-4475 [10]	0
HCC1143 [11]	2.39
HCC1599 [12]	3.98
HCC1937 [13]	4.24
HDQ-P1	6.19
Hs578T	2
MDA-MB-231	0
MDA-MB-436 [14]	0
MDA-MB-453	0
MDA-MB-468	0
MFM-223	0
SK-BR-3	6.92

From the supplement of paper PMC4862054
